This assay addresses T1, MAGE-A11:PCF11 interaction (GST-MAGE-A11 and FAM-PCF11_4) (Homo sapiens, UniProt P43364).
T1 construct: GST-MAGE-A11 MHD (human MAGE-A11 MHD amino acid 218-429); made in house; host or cells: E. coli BL21(DE3)
T1 sequence (P43364 218-429): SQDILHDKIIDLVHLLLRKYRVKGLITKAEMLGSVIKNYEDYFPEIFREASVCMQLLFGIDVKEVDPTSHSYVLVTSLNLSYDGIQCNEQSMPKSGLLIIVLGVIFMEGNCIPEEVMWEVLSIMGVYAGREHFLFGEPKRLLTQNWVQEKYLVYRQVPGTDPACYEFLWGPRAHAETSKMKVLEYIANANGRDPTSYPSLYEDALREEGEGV
Kind of assay: TR-FRET primary / single point screen at 15 µM. The format is binding. The essentials:
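TR-FRET 520/490 nm emission ratio was read after 90 min at room temperature. Wells held 5 nM GST-MAGE-A11, 5 nM Tb-anti-GST, 200 nM FAM-PCF11_4 and 15 µM compound in Tris pH 7.5 buffer with MgCl2, BSA and DTT. %Inhibition was scaled to DMSO and minus-MAGE-A11 controls.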
(In general: In TR-FRET formats the signal depends on donor and acceptor labels being close together.)

Where [1] appears, read: single point TR-FRET screening of 797 quinoline compounds against MAGE-A11:PCF11.
[2] abbreviates: single point TR-FRET screening of quinoline compounds against MAGE-A11:PCF11, 15 µM.

Turning to `COc1ccc2nc3cc(Cl)ccc3c(NCCCNCc3cn(C)c4ccccc34)c2c1` [SJ000520987], the “percent inhibition (TR-FRET)” value under setting [1] is -252.354.

Turning to `COc1ccc2nc3cc(Cl)ccc3c(NCCCNCc3cccc(OC(F)(F)F)c3)c2c1` [SJ000520988], the “percent inhibition (TR-FRET)” value under setting [2] was -73.5426.

Turning to `COc1ccc2nc3cc(Cl)ccc3c(NCCCNCc3nccs3)c2c1` [SJ000520989], the “percent inhibition (TR-FRET)” value under setting [1] was -355.207.

In the case of `COc1ccc2nc3cc(Cl)ccc3c(NCCCNCc3cccc(C(F)(F)F)c3)c2c1` [SJ000520990], the “percent inhibition (TR-FRET)” value under setting [1] is -408.139.

On to `COc1ccc2nc3cc(Cl)ccc3c(NCCCNCc3cccc4c3OCO4)c2c1` [SJ000520991], for which, under setting [1], the “percent inhibition (TR-FRET)” value is reported as -257.115.

As for `COc1ccc2nc3cc(Cl)ccc3c(NCCCNCc3ccc(OC(F)(F)F)cc3)c2c1` [SJ000520992], under setting [1], the “percent inhibition (TR-FRET)” value is -200.963.

On to `COc1ccc2nc3cc(Cl)ccc3c(NCCCNCc3cc(F)ccc3OC)c2c1` [SJ000520993], for which the “percent inhibition (TR-FRET)” value under setting [1] is on record as -365.36.

As to `COc1ccc2nc3cc(Cl)ccc3c(NCCCNCCC(C)(C)C)c2c1` [SJ000520994], the “percent inhibition (TR-FRET)” value under setting [1] was -456.31.

Take `CCCCNCCCNc1c2ccc(Cl)cc2nc2ccc(OC)cc12` [SJ000520995]: under setting [1], the “percent inhibition (TR-FRET)” value is on record as -405.549.

`COc1ccc2nc3cc(Cl)ccc3c(NCCCNCc3cc(Br)cs3)c2c1` [SJ000520996]: the “percent inhibition (TR-FRET)” value under setting [1] is -287.642.

`COc1ccc2nc3cc(Cl)ccc3c(NCCCNCc3cc4ccccc4o3)c2c1` [SJ000520997]: under setting [1], the “percent inhibition (TR-FRET)” value was -146.701.

Turning to `COc1ccc(F)c(CNCCCNc2c3ccc(Cl)cc3nc3ccc(OC)cc23)c1` [SJ000520998], the “percent inhibition (TR-FRET)” value under setting [1] is recorded as -354.997.

As to `COc1ccc2nc3cc(Cl)ccc3c(NCCCNCc3c(F)cccc3C(F)(F)F)c2c1` [SJ000520999], the “percent inhibition (TR-FRET)” value under setting [1] is reported as -116.734.

Turning to `COc1ccc2nc3cc(Cl)ccc3c(NCCCNCc3cc4ccccc4s3)c2c1` [SJ000521000], the “percent inhibition (TR-FRET)” value under setting [1] is on record as -220.357.

For the compound `COc1ccc2nc3cc(Cl)ccc3c(NCCCNCc3cc(OC(F)(F)F)ccc3OC)c2c1` [SJ000521001], the “percent inhibition (TR-FRET)” value under setting [1] is given as -231.84.

Take `COc1ccc2nc3cc(Cl)ccc3c(NCCCNCc3cc(C(F)(F)F)ccc3OC)c2c1` [SJ000521002]: under setting [1], the “percent inhibition (TR-FRET)” value is reported as -290.163.

For `COc1ccc2nc3cc(Cl)ccc3c(NCCCNCC3CCOC3)c2c1` (stereo not shown) [SJ000521003], under setting [1], the “percent inhibition (TR-FRET)” value is -442.307.

Regarding `COc1ccc2nc3cc(Cl)ccc3c(NCCCNCc3cccc(F)c3)c2c1` [SJ000521004], under setting [1], the “percent inhibition (TR-FRET)” value was -366.222.

Regarding `CCc1ccc(CNCCCNc2c3ccc(Cl)cc3nc3ccc(OC)cc23)cc1` [SJ000521005], the “percent inhibition (TR-FRET)” value under setting [1] is recorded as -390.355.

On to `COc1ccc2nc3cc(Cl)ccc3c(NCCCNCc3nccn3C)c2c1` [SJ000521006], for which, under setting [1], the “percent inhibition (TR-FRET)” value is listed as -279.905.

As for `CCCN(CCCNc1ccnc2cc(C(F)(F)F)ccc12)Cc1cncc(Br)c1` [SJ000521007], under setting [2], the “percent inhibition (TR-FRET)” value is on record as 4.323.

As to `CCCN(CCCNc1ccnc2cc(C(F)(F)F)ccc12)Cc1cccc(F)c1` [SJ000521008], under setting [2], the “percent inhibition (TR-FRET)” value was determined as 27.8488.

Turning to `CCCN(CCCNc1ccnc2cc(C(F)(F)F)ccc12)Cc1ccc(CC)cc1` [SJ000521009], the “percent inhibition (TR-FRET)” value under setting [2] was 31.7696.

For the compound `CCCN(CCCNc1ccnc2cc(C(F)(F)F)ccc12)Cc1nc(C)cs1` [SJ000521010], the “percent inhibition (TR-FRET)” value under setting [2] turned out to be 0.8927.

Take `CCCN(CCCNc1ccnc2cc(C(F)(F)F)ccc12)CCOCc1ccccc1` [SJ000521011]: under setting [2], the “percent inhibition (TR-FRET)” value worked out at 25.8235.

As to `CCCN(CCCNc1ccnc2cc(C(F)(F)F)ccc12)Cc1cc(F)cc(F)c1O` [SJ000521012], the “percent inhibition (TR-FRET)” value under setting [2] is reported as 14.997.

For `CCCN(CCCNc1ccnc2cc(C(F)(F)F)ccc12)Cc1ccc(OC)c(F)c1` [SJ000521013], the “percent inhibition (TR-FRET)” value under setting [2] came to 21.7574.

Consider `CCCN(CCCNc1ccnc2cc(C(F)(F)F)ccc12)Cc1cc(F)ccc1C` [SJ000521014], for which, under setting [2], the “percent inhibition (TR-FRET)” value is 20.6371.

As for `CCCN(CCCNc1ccnc2cc(C(F)(F)F)ccc12)Cc1ccc(Cl)c(C(F)(F)F)c1` [SJ000521015], the “percent inhibition (TR-FRET)” value under setting [2] was determined as 11.045.

`Cn1cccc1CNCCCNc1ccnc2cc(Cl)ccc12` [SJ000521019]: the “percent inhibition (TR-FRET)” value under setting [2] is 18.9568.

Consider `Cn1cc(CNCCCNc2ccnc3cc(Cl)ccc23)c2ccccc21` [SJ000521020], for which, under setting [2], the “percent inhibition (TR-FRET)” value is 18.4667.

`COC(=O)CCCCCNCCCNc1ccnc2cc(Cl)ccc12` [SJ000521021]: under setting [2], the “percent inhibition (TR-FRET)” value amounted to 39.1213.

Regarding `Clc1ccc2c(NCCCNCc3nccs3)ccnc2c1` [SJ000521023], under setting [2], the “percent inhibition (TR-FRET)” value stood at 4.988.

On to `CC(C)(C)CCNCCCNc1ccnc2cc(Cl)ccc12` [SJ000521026], for which the “percent inhibition (TR-FRET)” value under setting [2] is 9.225.

As for `CCCCNCCCNc1ccnc2cc(Cl)ccc12` [SJ000521027], the “percent inhibition (TR-FRET)” value under setting [2] came to 8.4544.

Regarding `Clc1ccc2c(NCCCNCc3cc(Br)cs3)ccnc2c1` [SJ000521028], the “percent inhibition (TR-FRET)” value under setting [2] was determined as 22.1075.

Turning to `Clc1ccc2c(NCCCNCc3cc4ccccc4o3)ccnc2c1` [SJ000521029], under setting [2], the “percent inhibition (TR-FRET)” value is reported as 17.9065.

Consider `Clc1ccc2c(NCCCNCc3cc4ccccc4s3)ccnc2c1` [SJ000521032], for which the “percent inhibition (TR-FRET)” value under setting [2] was determined as 30.1342.

On to `Clc1ccc2c(NCCCNCc3csc4ccccc34)ccnc2c1` [SJ000521033], for which the “percent inhibition (TR-FRET)” value under setting [2] is 33.3803.

For `Clc1ccc2c(NCCCNCc3nc4ccccc4s3)ccnc2c1` [SJ000521034], the “percent inhibition (TR-FRET)” value under setting [2] is 4.695.

Take `Clc1ccc2c(NCCCNCc3cncc(Br)c3)ccnc2c1` [SJ000521037]: the “percent inhibition (TR-FRET)” value under setting [2] is 7.014.

Turning to `Clc1ccc2c(NCCCNCC3CCOC3)ccnc2c1` (stereo not shown) [SJ000521038], the “percent inhibition (TR-FRET)” value under setting [2] is 0.4026.

With `Cn1ccnc1CNCCCNc1ccnc2cc(Cl)ccc12` [SJ000521040], the “percent inhibition (TR-FRET)” value under setting [2] came to 1.449.

Turning to `Cn1cccc1CNCCCNc1ccnc2cc(C(F)(F)F)ccc12` [SJ000521041], the “percent inhibition (TR-FRET)” value under setting [2] is recorded as -6.879.

In the case of `FC(F)(F)c1ccc2c(NCCCNCc3cccnc3)ccnc2c1` [SJ000521042], the “percent inhibition (TR-FRET)” value under setting [2] was 15.0359.

Consider `Cn1cc(CNCCCNc2ccnc3cc(C(F)(F)F)ccc23)c2ccccc21` [SJ000521043], for which the “percent inhibition (TR-FRET)” value under setting [2] turned out to be 29.109.

In the case of `COC(=O)CCCCCNCCCNc1ccnc2cc(C(F)(F)F)ccc12` [SJ000521044], the “percent inhibition (TR-FRET)” value under setting [2] is 19.5869.

As for `FC(F)(F)c1ccc2c(NCCCNCc3nccs3)ccnc2c1` [SJ000521046], the “percent inhibition (TR-FRET)” value under setting [2] stood at 7.779.

Consider `CC(C)(C)CCNCCCNc1ccnc2cc(C(F)(F)F)ccc12` [SJ000521053], for which, under setting [2], the “percent inhibition (TR-FRET)” value came out at 27.3587.

As for `CCCCNCCCNc1ccnc2cc(C(F)(F)F)ccc12` [SJ000521055], the “percent inhibition (TR-FRET)” value under setting [2] was found to be 18.5367.

In the case of `FC(F)(F)c1ccc2c(NCCCNCc3cc(Br)cs3)ccnc2c1` [SJ000521056], the “percent inhibition (TR-FRET)” value under setting [2] is on record as 32.7178.

Regarding `FC(F)(F)c1ccc2c(NCCCNCc3cc4ccccc4o3)ccnc2c1` [SJ000521057], the “percent inhibition (TR-FRET)” value under setting [2] is 27.4843.

For `FC(F)(F)c1ccc2c(NCCCNCc3cc4ccccc4s3)ccnc2c1` [SJ000521060], the “percent inhibition (TR-FRET)” value under setting [2] amounted to 35.6327.

As to `FC(F)(F)c1ccc2c(NCCCNCc3csc4ccccc34)ccnc2c1` [SJ000521061], under setting [2], the “percent inhibition (TR-FRET)” value turned out to be 41.8599.

Turning to `FC(F)(F)c1ccc2c(NCCCNCc3nc4ccccc4s3)ccnc2c1` [SJ000521062], the “percent inhibition (TR-FRET)” value under setting [2] came to 14.4336.

As for `FC(F)(F)c1ccc2c(NCCCNCC3CCOC3)ccnc2c1` (stereo not shown) [SJ000521065], the “percent inhibition (TR-FRET)” value under setting [2] turned out to be 15.5598.

In the case of `Cn1ccnc1CNCCCNc1ccnc2cc(C(F)(F)F)ccc12` [SJ000521068], the “percent inhibition (TR-FRET)” value under setting [2] came out at 10.1938.

As for `Clc1ccc2c(NCCCN(Cc3ccccc3)Cc3ccc[nH]3)ccnc2c1` [SJ000522717], the “percent inhibition (TR-FRET)” value under setting [2] is reported as 20.4621.

As to `Clc1ccc2c(NCCCCN(Cc3ccccc3)Cc3ccccc3)ccnc2c1` [SJ000522718], under setting [1], the “percent inhibition (TR-FRET)” value stood at 17.3464.

For the compound `Clc1ccc2c(NCCCN(Cc3ccccc3)Cc3ccc4c(c3)OCO4)ccnc2c1` [SJ000522719], the “percent inhibition (TR-FRET)” value under setting [2] turned out to be 9.001.

With `COc1ccc(CN(CCCNc2ccnc3cc(Cl)ccc23)Cc2ccccc2)cc1` [SJ000522720], under setting [2], the “percent inhibition (TR-FRET)” value worked out at 11.7837.

In the case of `Fc1ccc(CN(CCCNc2ccnc3cc(Cl)ccc23)Cc2ccccc2)cc1` [SJ000522721], the “percent inhibition (TR-FRET)” value under setting [2] was 18.0772.

For the compound `COc1ccccc1CN(CCCNc1ccnc2cc(Cl)ccc12)Cc1ccccc1` [SJ000522722], under setting [2], the “percent inhibition (TR-FRET)” value was found to be 4.43.

As for `Clc1ccc2c(NCCCCN(Cc3ccccc3)Cc3ccc4c(c3)OCO4)ccnc2c1` [SJ000522723], the “percent inhibition (TR-FRET)” value under setting [1] was determined as 16.5062.

In the case of `COc1ccc(CN(CCCCNc2ccnc3cc(Cl)ccc23)Cc2ccccc2)cc1` [SJ000522724], under setting [1], the “percent inhibition (TR-FRET)” value is on record as 6.683.

`Fc1ccc(CN(CCCCNc2ccnc3cc(Cl)ccc23)Cc2ccccc2)cc1` [SJ000522725]: under setting [1], the “percent inhibition (TR-FRET)” value worked out at 30.2004.

On to `COc1ccccc1CN(CCCCNc1ccnc2cc(Cl)ccc12)Cc1ccccc1` [SJ000522726], for which the “percent inhibition (TR-FRET)” value under setting [1] is on record as 19.4021.
